# Test results published in US20160038526A1, “TREATMENT OF PROSTATE CANCER” (THOMAS JEFFERSON UNIVERSITY, priority 2012, published 2016).
# Columns and labels:
# [1] = system: CWR22Rv1 cells; assay: Nucleosomal DNA fragmentation (nucleosomal ELISA) in CWR22Rv1 cells; assay type: cell-based, human; conditions: 24 μM N6BAP
# [2] = system: HT1080 (fibrosarcoma); assay: Cell viability assay, HT1080; assay type: cell-based
# [3] = system: A2058 human melanoma; assay: Cell viability assay, A2058; assay type: cell-based
# Description: CWR22Rv1 prostate cancer cells were treated with N6BAP or the control compound C5 (Ctrl) at 25 μM concentration or vehicle for 24 h. Following trypan blue exclusion, the attached viable vs. de-attached dead cells were counted. […] The bars indicate mean±SD of triplicate wells. In another assay, CWR22Rv1, LNCaP and DU145 cells were treated with N6BAP, the control compound C5 (Ctrl) or vehicle at indicated concentrations. The fraction of alive cells was determined by MTS ([…]) metabolic activity assay (CellTiter 96® AQueous Assay kit). The results are shown in FIGS. 9C, 9D and 9E, respectively.
# The procedure of Example 9 was followed, substituting cells of the following solid tumor cell lines for the cells treated in Example 9: A549 human lung cancer cells, CAPAN human pancreatic cancer cells, T47D human breast cancer cells, […], A2058 human melanoma and COS-7 monkey fibroblast cell lines.
# [4] = system: Stat3; assay: Nuclear Stat3 immunostaining in CWR22Rv1 xenograft tumors; assay type: in vivo, nude mice; conditions: CWR22Rv1 xenograft tumors of Example 10
# Description: Nuclear active Stat5a/b or nuclear active Stat3 were analyzed by immunostaining with an anti-Stat5a/b or anti-Stat3 antibody, respectively, and biotin-streptavidin amplified peroxidase antiperoxidase immunodetection of paraffin-embedded sections of the prostate xenograft tumors of Example 10. Anti-Stat5a/b (mAb) (55 ng/ml) (Santa Cruz Biotechnology) was used as the primary antibody and antigen-antibody complexes were detected by appropriate biotinylated goat secondary antibodies (Biogenex Laboratories) followed by streptavidin-horseradish-peroxidase complex, and 3,3′-diaminobenzidine as chromogen and Mayer hematoxylin as counterstain. Three microscopic views of each tumor (ten tumors per each treatment group) were photographed at 20× magnification. Nuclear Stat5 and Stat3 indexes were determined by counting epithelial cells with nuclear Stat5a/b immunostaining-positive cells per total number of epithelial cells per view. The counts were averaged within the tumors in a given treatment group.
smiles,measurement,setting,value
"O=P(O)(O)OC[C@H]1O[C@@H](n2cnc3c(NCc4ccccc4)ncnc32)[C@H](O)[C@@H]1O [N6BAP, N^6-benzyladenosine-5′-monophosphate]",DNA fragmentation (apoptosis),[1],N6BAP-induced DNA fragmentation
same,cell viability,[2],did not affect the viability
same,cell viability,[3],did not affect the viability
same,nuclear Stat3 in xenograft tumors,[4],without affecting nuclear Stat3
